According to patent US20150018311A1, “THERAPEUTIC BORON-CONTAINING COMPOUNDS” (priority 2012, published 2015):

How the values were obtained:
Assay in all cases: Growth in liquid media in presence of test compound
Format in all cases: cell-based
[1] = test system: Mycobacterium tuberculosis (H37Rv)
[2] = test system: Candida albicans (ATCC 90028)
Source text: (§1) Test organisms used were the bacterial strains Escherichia coli (ATCC 25922), Pseudomonas aeruginosa (ATCC 27853), Staphylococcus aureus (ATCC 25923), Streptococcus pyogenes (ATCC 19615), and Mycobacterium tuberculosis (H37Rv), and the yeast strain Candida albicans (ATCC 90028).
(§2) The liquid media used for growth were Luria-Bertani (Becton Dickinson, Sparks, Md.) and Mueller-Hinton (bio-Merieux, Paris, France) broths, but with Saburo medium for Candida and Middlebrook 7H9 medium (Difco) for mycobacteria.
(§3) The strains were grown at 37° C. and after suitable cell concentrations had been reached, 100 μL of each cell suspension was added to a tube with growth media and test compound. Cultivation of the bacteria was then carried out in the presence of each test compound at 37° C. and the tubes examined for visible growth. The compounds were tested at concentrations of either 500 mg/l, 50 mg/l or 5 mg/l. This assay was repeated twice.
(§4) Some compounds were only tested against some test organisms. It will be appreciated that the charge of these molecules will depend on the environment, some of the Examples are shown with a suitable counter ion, some without.

[3] = test system: Pseudomonas aeruginosa (ATCC 27853)
Source text: as §1, §2, §3, §4

[4] = test system: Escherichia coli (ATCC 25922)
Source text: as §1, §2, §3, §4

[5] = test system: Streptococcus pyogenes (ATCC 19615)
Source text: as §1, §2, §3, §4

[6] = test system: Staphylococcus aureus (ATCC 25923)
Source text: as §1, §2, §3, §4

Compound | Growth in the presence of test compound, M. tuberculosis ([1]; 5 mg/L) | Growth in the presence of test compound, M. tuberculosis ([1]; 50 mg/L) | Growth in the presence of test compound, M. tuberculosis ([1]; 500 mg/L) | Growth in the presence of test compound, C. albicans ([2]; 5 mg/L) | Growth in the presence of test compound, C. albicans ([2]; 50 mg/L) | Growth in the presence of test compound, C. albicans ([2]; 500 mg/L) | Growth in the presence of test compound, P. aeruginosa ([3]; 5 mg/L) | Growth in the presence of test compound, P. aeruginosa ([3]; 50 mg/L) | Growth in the presence of test compound, P. aeruginosa ([3]; 500 mg/L) | Growth in the presence of test compound, E. coli ([4]; 5 mg/L) | Growth in the presence of test compound, E. coli ([4]; 50 mg/L) | Growth in the presence of test compound, E. coli ([4]; 500 mg/L) | Growth in the presence of test compound, S. pyogenes ([5]; 5 mg/L) | Growth in the presence of test compound, S. pyogenes ([5]; 50 mg/L) | Growth in the presence of test compound, S. pyogenes ([5]; 500 mg/L) | Growth in the presence of test compound, S. aureus ([6]; 5 mg/L) | Growth in the presence of test compound, S. aureus ([6]; 50 mg/L) | Growth in the presence of test compound, S. aureus ([6]; 500 mg/L)
CC1(C)C2CC3OB(CC(Cc4ccccc4)NC(=O)C(N)CCCCN)OC3(C)C1C2 (stereo not drawn) [Compound 44] | + | + | − | + | + | ± | + | + | − | + | + | − | + | + | − | + | + | −
CC1(C)C2CC3OB([C@H](CCc4ccccc4)CNC(=O)[C@@H](N)CCCCN)O[C@]3(C)C1C2 (stereo partly drawn) [Compound 19] | + | − | − | + | + | − | + | + | − | + | + | − | + | + | − | + | + | ±
Cl.Cl.NCCCC[C@H](N)C(=O)NC[C@@H](Cc1ccc(OC(F)(F)F)cc1)B(O)O [Compound 52] | ± | ± | − | + | + | − | + | + | + | + | + | + | + | + | ± | + | + | +
CC1(C)C2CC3OB([C@@H](CNC(=O)[C@H](N)CCCCN)Cc4ccccc4)O[C@]3(C)C1C2 (stereo partly drawn) [Compound 12] | ± | − | − | + | + | − | + | + | ± | + | + | − | + | + | − | + | + | ±
